Assays:
Assay in all cases: selective drug sensitivity score (sDSS, relative to normal bone marrow) (sDSS (score)); higher = more potent and effective on the cell line relative to normal bone marrow cells
Conditions in all cases: 72 h
[1] = tested on: ALL-PO
[2] = tested on: RCH-ACV
[3] = tested on: CCRF-HSB2
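Also: ALL cell lines in 384-well plates, five doses spanning 10,000-fold, each plate scaled between vehicle and 100 µmol/L benzalkonium chloride controls, sDSS an adapted area-under-curve metric.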

SMILES | selective drug sensitivity score [1] | selective drug sensitivity score [2] | selective drug sensitivity score [3]
CCn1cc(-c2ccnc3[nH]c(-c4cccc(CN(C)C)c4)cc23)c(-c2ccc(NC(=O)N(C)C)cc2)n1 (top concentration 1000 nM) | 13.2 | 14 | 15.5
CC(C)(C)C[C@@H]1N[C@@H](C(=O)N[C@H]2CC[C@H](O)CC2)[C@H](c2cccc(Cl)c2F)[C@]12C(=O)Nc1cc(Cl)ccc12 (top concentration 10000 nM) | -1.84 | 12.4 | 9.06
Cc1c(Cn2c(C)nc3c(C(=O)O)cc(N4CCOCC4)cc32)cccc1C(F)(F)F (top concentration 10000 nM) | 0.08 | 5.18 | -0.02
Nc1ncnc2c1c(COc1cccc(Cl)c1)nn2C1CCOCC1 (top concentration 10000 nM) | 0.66 | 6.06 | 2.96
Cn1cc(C[C@@H](N)C(=O)O)c2ccccc21 [1-methyl-D-tryptophan] (top concentration 5000 nM) | -0.62 | -0.62 | -0.62
COc1cc2c(cc1OCCCN1CCCC1)N=C(N)C21CCC1 [A-366] (top concentration 25000 nM) | 1.76 | 0.06 | 0.16
COCCOc1cnc2ccn([C@H](C)c3nnc4c(F)cc(-c5cnn(C)c5)cn34)c(=O)c2c1 [AMG-337] (top concentration 10000 nM) | -0.06 | -0.06 | -0.06
COc1cc(N2CCC(N3CCN(C)CC3)CC2)ccc1Nc1ncnc(Nc2ccccc2S(=O)(=O)C(C)C)n1 [ASP3026] (top concentration 10000 nM) | 5.36 | -0.74 | 5.06
CN[C@@H](C)C(=O)N[C@H]1CN(C(=O)CC(C)C)CC[C@H]2CC[C@@H](C(=O)NC(c3ccccc3)c3ccccc3)N2C1=O [AT-406] (top concentration 10000 nM) | -1.26 | 0.84 | 1.94
COc1cc2ncnc(Nc3cccc(Cl)c3F)c2cc1OC(=O)N1CCN(C)C[C@H]1C [AZD3759] (top concentration 1000 nM) | 1.26 | -0.04 | -0.04
C[C@]12CC[C@H](O)CC1=CC[C@@H]1[C@@H]2CC[C@]2(C)C(c3cccnc3)=CC[C@@H]12 [Abiraterone] (top concentration 5000 nM) | 3.48 | -0.02 | -0.12
CC#CC(=O)N1CCC[C@H]1c1nc(-c2ccc(C(=O)Nc3ccccn3)cc2)c2c(N)nccn12 [Acalabrutinib] (top concentration 1000 nM) | -0.1 | 1.8 | -0.1
CCc1cc2c(cc1N1CCC(N3CCOCC3)CC1)C(C)(C)c1[nH]c3cc(C#N)ccc3c1C2=O [Alectinib] (top concentration 1000 nM) | 7.28 | 4.98 | -0.22
Oc1ncnc2[nH]ncc12 [Allopurinol] (top concentration 10000 nM) | -0.64 | -0.64 | -0.64
COc1cc(NS(C)(=O)=O)ccc1Nc1c2ccccc2nc2ccccc12 [Amsacrine] (top concentration 10000 nM) | 5.66 | 24.7 | 22.5
O=C1CN2Cc3c(ccc(Cl)c3Cl)N=C2N1 [Anagrelide] (top concentration 10000 nM) | 1 | 0 | 0
N#CC(c1ccnc(OCc2ccc(CN3CCOCC3)cc2)n1)c1nc2ccccc2s1 (stereo unspecified) [Bentamapimod] (top concentration 10000 nM) | 6.24 | 4.44 | 4.04
CCNC(=O)CCC/C=C\C[C@@H]1[C@@H](/C=C/[C@@H](O)CCc2ccccc2)[C@H](O)C[C@@H]1O [Bimatoprost] (top concentration 5500 nM) | 0 | 0 | 0
COc1cc(C)[nH]c(=O)c1CNC(=O)c1c(C)n([C@H](C)C2CCOCC2)c2ccccc12 [CPI-360] (top concentration 10000 nM) | 0 | 0 | 0
CNC(=O)c1ccc(-c2cnc3ncc(Cc4ccc5ncccc5c4)n3n2)cc1F [Capmatinib] (top concentration 1000 nM) | -0.06 | -0.06 | -0.06
COc1cc2c(Oc3ccc4[nH]c(C)cc4c3F)ncnc2cc1OCCCN1CCCC1 [Cediranib] (top concentration 1000 nM) | 0 | 0 | 3.4

SMILES | selective drug sensitivity score [1] | selective drug sensitivity score [2] | selective drug sensitivity score [3]
CCN(CC)CCCC(C)Nc1ccnc2cc(Cl)ccc12 (stereo unspecified) [Chloroquine] (top concentration 100000 nM) | -1.64 | -0.14 | -2.34
C[C@@H](Oc1cc(-c2cnn(C3CCNCC3)c2)cnc1N)c1c(Cl)ccc(F)c1Cl [Crizotinib] (top concentration 1000 nM) | 1.46 | -0.54 | 4.26
COc1cc2ncnc(Nc3ccc(F)c(Cl)c3)c2cc1NC(=O)/C=C/CN1CCCCC1 [Dacomitinib] (top concentration 1000 nM) | 3.06 | 0.16 | 3.76
CCN(CC)CCN(Cc1ccc(-c2ccc(C(F)(F)F)cc2)cc1)C(=O)Cn1c(SCc2ccc(F)cc2)nc(=O)c2c1CCC2 [Darapladib] (top concentration 1000 nM) | -1.42 | 7.28 | -0.52
C[C@@H]1C[C@H]2[C@@H]3CCC4=CC(=O)C=C[C@]4(C)[C@@]3(F)[C@@H](O)C[C@]2(C)[C@@]1(O)C(=O)CO [Dexamethasone] (top concentration 10000 nM) | 43.2 | 38.8 | 18.8
Cc1cc(C)c(CNC(=O)c2cc(-c3ccc(CN4CCOCC4)cc3)cc3c2cnn3C2CCCC2)c(=O)[nH]1 [EPZ-5687] (top concentration 10000 nM) | 0.24 | -0.36 | -0.06
C=C1C[C@@H]2CC[C@@]34C[C@H]5O[C@H]6[C@@H](O3)[C@H]3O[C@H](CC[C@@H]3O[C@H]6[C@H]5O4)CC(=O)C[C@@H]3[C@@H](OC)[C@@H](C[C@H](O)CN)O[C@H]3C[C@H]3O[C@@H](CC[C@@H]1O2)C[C@@H](C)C3=C [Eribulin] (top concentration 1000 nM) | 16.3 | 25.4 | 22.8
O=c1[nH]cc(F)c(=O)[nH]1 [Fluorouracil] (top concentration 10000 nM) | 8.56 | 2.96 | -0.64
CC(C)C(=O)Nc1ccc([N+](=O)[O-])c(C(F)(F)F)c1 [Flutamide] (top concentration 10000 nM) | -0.56 | 0.14 | -0.46
C[C@]12CC[C@@H]3c4ccc(O)cc4C[C@@H](CCCCCCCCC[S+]([O-])CCCC(F)(F)C(F)(F)F)[C@H]3[C@@H]1CC[C@@H]2O (stereo partly specified) [Fulvestrant] (top concentration 1000 nM) | 2.3 | 0 | 0
CCCOc1ccn2c(C(C)=O)cc(-c3ccccc3S(C)(=O)=O)c2c1 [GSK2801] (top concentration 10000 nM) | 0.04 | 3.24 | -0.36
Cc1cccc(-c2nn3c(c2-c2ccnc4ccc(C(N)=O)cc24)CCC3)n1 [Galunisertib] (top concentration 1000 nM) | 0 | 0 | 0
O=C(O)CNC(=O)c1c(O)c2ccccc2n(Cc2ccccc2)c1=O [IOX-2] (top concentration 50000 nM) | -0.22 | 1.18 | -0.82
C#Cc1cccc(Nc2ncnc3cc4c(cc23)OCCOCCOCCO4)c1 [Icotinib] (top concentration 10000 nM) | 0.7 | 1.2 | 2.6
CC(C)Cn1cnc2c(N)nc3ccccc3c21 [Imiquimod] (top concentration 2500 nM) | 0.4 | 1.7 | 0.4
N#Cc1ccnc(N2C(=O)CC[C@H]2C(=O)N(c2cncc(F)c2)[C@H](C(=O)NC2CC(F)(F)C2)c2ccccc2Cl)c1 [Ivosidenib] (top concentration 10000 nM) | 0 | 0 | 1.6
C/C(=C\c1csc(C)n1)[C@@H]1C[C@@H]2O[C@]2(C)CCC[C@H](C)[C@H](O)[C@@H](C)C(=O)C(C)(C)[C@@H](O)CC(=O)N1 [Ixabepilone] (top concentration 1000 nM) | 2.28 | 6.78 | 3.18
Nc1cc(COc2c(Cl)cc(C[C@H](N)C(=O)O)cc2Cl)c2oc(-c3ccccc3)nc2c1 [JPH203] (top concentration 5000 nM) | 0 | 4.5 | 0
CS(=O)(=O)CCNCc1ccc(-c2ccc3ncnc(Nc4ccc(OCc5cccc(F)c5)c(Cl)c4)c3c2)o1 [Lapatinib] (top concentration 1000 nM) | 0 | 0 | 0
Oc1ccc2c(c1)CC[C@H](c1ccccc1)[C@@H]2c1ccc(OCCN2CCCC2)cc1 [Lasofoxifene] (top concentration 1000 nM) | -1.28 | -1.28 | -1.28
Cc1ccc(F)c(NC(=O)Nc2ccc(-c3cccc4[nH]nc(N)c34)cc2)c1 [Linifanib] (top concentration 1000 nM) | -1.12 | -1.12 | -1.12

Reference: the supplement of paper PMC8967900
